The text below walks through data of patent US5681823A, “P^1, P^4 -dithio-P^2 -P^3 -monochloromethylene 5', 5'"-diadenosine P^1, P^4 -tetraphosphate as antithrombotic agent” (PRP Inc., priority 1996, dated 1997).

“Also recorded” adds a separate entry of the source. Read-outs that look alike come from different tables or passages of the source. Where only a bound is given, the exact number is not on record here.

In data set [1] the test system is Cytoplasmic Calcium Ion (Ca^++) Mobilization in platelets. The experiment in a line: Cytoplasmic calcium ion mobilization in platelets (Indo-1, flow cytometer). Type of data set: cell-based, human. As to conditions: unstimulated peak 133. Here is the method: (§1) Unless otherwise provided below, the experimental procedures were performed according to the procedures provided in U.S. Pat. No. 5,049.550 (Zamecnik '550), the entire contents of which are incorporated herein by reference. Some alternative procedures (e.g., release reaction, PF3 assays) and a number of additional studies also are provided (e.g., cytoplasmic calcium mobilization, fibrinogen binding site, agonists other than ADP, platelet cAMP and distribution of CHCl-AP4 A into blood components). Blood was collected in a 0.1 volume of 3.8% sodium citrate from healthy human volunteers who had abstained from antiplatelet agents for at least 10 days. Platelet rich plasma (PRP) was separated by a gradual centrifugation and adjusted to 3.3×10^8 platelets per ml plasma. PRP has been utilized in the Examples unless otherwise stated.
An increment of cytoplasmic Ca^++ in the platelets represents an activated state. Indo-1 acetomethyl ester (Indo-1) commonly has been utilized as the reagent to detect intracellular free Ca^++. Indo-1 reacts with Ca^++ and produces fluorescence which can be monitored in a dual wavelength (408/485) flow cytometer (Coulter EPIC Systems). Platelets were incubated with Indo-1 at 37° C. for 45 min. Excess Indo-1 in the medium was removed by gel-filtration method. Indo-1-loaded platelets were then activated by 6.7 μM ADP in the absence or presence of thio-CHCl-AP4 A (3.3 μM) or CHCl-AP4 A (6.7 μM). Fluorescence intensity of the platelets was monitored and plotted against platelet number. The histograms generated from the plots were analyzed. Unstimulated platelets registered fluorescence intensity (FI) between 42 and 250 with a peak at 133 (base line control).

For data set [2] the following is noted: cited from earlier work.
Data set [3] concerns ADP-induced platelet aggregation. As to conditions: cited from earlier work.
The conditions of data set [4]: cited from earlier work. The source holds these as a separate data set.
Data set [5] concerns ADP-induced platelet aggregation; thrombus formation. As to conditions: in words; cited from earlier work.
In data set [6] the test system is ADP-induced platelet aggregation. The settings on record: Zamecnik '550 Table 3; cited from earlier work.
For data set [7] the test system is unchanged. The experiment in a line: ADP-induced platelet aggregation in platelet-rich plasma (turbidimetric method of Born, aggregometer). Type of data set: cell-based, human. The settings on record: ADP-induced aggregation, PRP, mean of three (*) or two determinations. Here is the method: as §1
An initial screening was performed for inhibitory effects of several agents (including, e.g., thio-CHCl-AP4 A and CHCl-AP4 A as reference agent)) on platelet aggregation induced by ADP. Platelet aggregation was measured with platelet-rich plasma (PKP) by the turbidimetric method of Born (J. Physiol. 162:67, 1962) in an aggregometer (Chrono-log, Model 530 VS). Platelet aggregation induced by 5 μM ADP in the absence or presence of 5 μM agents was examined. […] The IC50 value of the CHCl-AP4 A (reference agent) was consistent with the value reported previously (P. Zamecnik et al., Proc. Nat'l. Acad. Sci. USA 89:2370-2373 (1992)).

The test system of data set [8] is platelet cAMP level. In words: Level of intracellular platelet cAMP (etheno-cAMP, HPLC). Type of data set: cell-based, human. The settings on record: 10 μM agent, 37° C., 5 min; control 31.6. Here is the method: as §1
The inhibitory effect of cAMP on platelet aggregation has been known as a counteraction of calcium ion mobilization. Accordingly, the inhibitory effects of the agents with respect to a cAMP mediated mechanism was tested. PRP was incubated with saline (control), agents (at 20 μM and 100 μM), or forskolin (10 μM) at 37° C. for 5 min. After incubation, extracts were made using Ba(OH)2 and ZnSO4. Cyclic AMP in the extracts was converted into the etheno-cAMP derivative, and the levels were estimated by HPLC using a fluorescence detector (W. Wojcik et al., J. Cyclic Nucleotide Res. 7:27-35 (1981)). The level of cAMP in an unknown extract was determined by extrapolation from a standard graph. A linear relationship between the cAMP level in the extracted samples and fluorescence detection was observed. […] However, this increase may not be a specific effect. Although adenosine contamination in the tested AP4 A agents was not detected, it is possible that either cellular adenosine nucleotide metabolic products or contaminated adenosine in the tested agents may be responsible for the elevated cAMP level.

The test system of data set [9] is platelet cAMP level. Described as above. As to conditions: forskolin 101 μM as printed, positive control, in words. Type of data set: cell-based, human.
The conditions of data set [10]: in words, cited from earlier work; for side effects / bleeding risk: clinical.

As for `CNc1ccc2oc(C[C@H]3O[C@@]4(CC[C@H]3C)O[C@H]([C@H](C)C(=O)c3ccc[nH]3)[C@H](C)C[C@H]4C)nc2c1C(=O)O` [A23187], the “fluorescence intensity (FI), peak” value in [1] (2 μM A23187, positive control) is on record as 530.
Consider `Nc1ncnc2c1ncn2[C@@H]1O[C@H](COP(=O)(O)OP(=O)(O)O)[C@@H](O)[C@H]1O` [ADP, adenosine diphosphate], for which, in [1] (6.7 μM ADP, no agent), the “fluorescence intensity (FI), peak” value stood at 158.
For `Nc1ncnc2c1ncn2[C@@H]1O[C@H](COP(=O)(O)OP(=O)(O)OP(=O)(O)OC[C@H]2O[C@@H](n3cnc4c(N)ncnc43)[C@H](O)[C@@H]2O)[C@@H](O)[C@H]1O` [AP3 A, diadenosine 5', 5'"-p^1, p^3 -triphosphate], the “degradation products in plasma” value in [2] was “hydrolyzed in plasma to AMP (adenosine monophosphate) and ADP (adenosine diphosphate)”. In addition, in data set [3] (AP3 A, in words), the “effect on platelet aggregation” value was “gradual aggregation of platelets”.
As to `Nc1ncnc2c1ncn2[C@@H]1O[C@H](COP(=O)(O)OP(=O)(O)OP(=O)(O)OP(=O)(O)OC[C@H]2O[C@@H](n3cnc4c(N)ncnc43)[C@H](O)[C@@H]2O)[C@@H](O)[C@H]1O` [AP4 A, diadenosine 5', 5'"-P^1,P^4 -tetraphosphate], the “AP4 A degraded in plasma” value in [2] (^32 P-labeled, normal plasma, ten minutes, 37° C., 10 min) was 90%. In addition, in [2], the “degradation products in plasma” value is “degraded to AMP and ATP (adenosine triphosphate)”. In addition, the “half-life in rabbit blood” value in data set [4] (in vivo and ex vivo) was “short half-life”. Besides, in data set [4] (rabbit blood), the “ex vivo decay compared to in vivo clearance” value is “significantly longer”. Moreover, in data set [5], the “effect on ADP-induced platelet aggregation on administration to a mammal” value is given as “inhibit markedly ADP-induced platelet aggregation” and the “effect on thrombus formation on administration to a mammal” value is listed as “inhibit thrombus formation”. Besides, the “dispersion of aggregated platelets” value in data set [3] (even when aggregation has progressed to 60% completion) is listed as “immediate dispersion of aggregated platelets”. Moreover, the “effect on ADP-induced platelet aggregation” value in data set [3] (in vitro, in words) is “competitive inhibitor; also recorded: competitively inhibits”.
As to `Nc1ncnc2c1ncn2[C@@H]1O[C@H](COP(=O)(O)OP(=O)(O)C(F)P(=O)(O)OP(=O)(O)OC[C@H]2O[C@@H](n3cnc4c(N)ncnc43)[C@H](O)[C@@H]2O)[C@@H](O)[C@H]1O` (some centres unmarked) [AppCHFppA], the ID10 in data set [6] is 4 µM.
Turning to `Nc1ncnc2c1ncn2[C@H]1C[C@H](O)[C@@H](COP(=O)(O)OP(=O)(O)C(Cl)P(=O)(O)OP(=O)(O)OC[C@H]2O[C@@H](n3cnc4c(N)ncnc43)C[C@@H]2O)O1` (some centres unmarked) [CHCl-dAP4 dA], the IC50 in [7] (read-out: IC50) is above 100 µM.
`C=C[C@@]1(C)CC(=O)[C@]2(O)[C@@]3(C)[C@@H](O)CCC(C)(C)[C@@H]3[C@H](O)[C@H](OC(C)=O)[C@@]2(C)O1` [Forskolin]: the “platelet cAMP level” value in [8] stood at 124.4 nM. Also, the “effect on platelet cAMP” value in [9] is on record as “marked increase”.
In the case of `Nc1ncnc2c1ncn2[C@H]1C[C@H](O)[C@@H](COP(O)(=S)OP(=O)(O)C(Cl)P(=O)(O)OP(O)(=S)OC[C@H]2O[C@@H](n3cnc4c(N)ncnc43)C[C@@H]2O)O1` (some centres unmarked) [Thio-CHCl-dAP4 dA], it took 9.22 µM to reach half-maximal inhibition in data set [7] (IC50).
Regarding `CC(=O)Oc1ccccc1C(=O)O` [aspirin], the clinical effectiveness result in data set [10] is “useful but limited effectiveness”.
In the case of `Clc1ccccc1CN1CCc2sccc2C1` [ticlopidine], the “side effects / bleeding risk” value in data set [10] is “substantial side effects”.
As to “ReoPro: newer drugs, such as ReoPro (7E3)”, in [10], the “side effects / bleeding risk” value is given as “increased risk of major bleeding”.
